In test [1] the test system is Alternaria solani. The test can be described thus: Alternaria solani (Early Blight of Tomato/Potato) radial growth on potato dextrose agar. As to conditions: 168 h, radial growth after seven days compared to untreated control. It counts as cell-based.
Test [2] relates to Fusarium culmorum. The test can be described thus: Fusarium culmorum (Foot Rot of Cereals) radial growth on potato dextrose agar. It counts as cell-based. The note with it: 300 ppm; radial growth after seven days compared to untreated control. How it is done: Example 6: Fusarium culmorum (Foot Rot of Cereals)
Compounds were dissolved in 0.3% dimethyl sulfoxide and then added to potato dextrose agar medium just prior to dispensing it into petri dishes. 5 mL medium with the compound in the desired concentration was dispensed into 60 mm sterile petri-plates. After solidification each plate was seeded with a 5 mm size mycelial disc taken from the periphery of an actively growing virulent culture plate. Plates were incubated in growth chambers at 25° C. temperature and 60% relative humidity for seven days and then the radial growth was measured and compared to that of the untreated control.

The values that follow come from US12677832B2, “Oxadiazole compounds for controlling or preventing phytopathogenic fungi” (PI INDUSTRIES LTD., priority 2019, dated 2026).

Where only a bound is given, the exact number is not on record here.

A word on the inhibition of growth: it is the change of the read-out against control, counted positive when it falls.

In test [1], `O=C(CNc1ccc(Cl)c(C(F)(F)F)c1)c1ccc(-c2noc(C(F)(F)F)n2)cc1` [Compound 140, 2-((4-chloro-3-(trifluoromethyl)phenyl)amino)-1-(4-(5-(trifluoromethyl)-1,2,4-oxadiazol-3-yl)phenyl)ethan-1-one] returned an inhibition of growth at 300 ppm of no less than 70%. The control in test [2] was no less than 70%.
